Experimental data published in PMC11061835, “Elucidating the Mechanism of Metabolism of Cannabichromene by Human Cytochrome P450s” (Journal of Natural Products, 2024).
Several values for one entry are separate records, joined by “and”; a condition that tells them apart may be missing. Equal entries are not always repeated.

How the values were obtained:
[1] = molecular target: CYP2D6 (Homo sapiens, UniProt P10635); experiment: CBC metabolism by CYP2D6; assay type: in vitro ADME; set-up: His-tag; made in house; host or cells: E. coli DH-5α with pTGro7 plasmid (CYP)
CYP2D6, sequence (P10635 whole entry, one chain of several): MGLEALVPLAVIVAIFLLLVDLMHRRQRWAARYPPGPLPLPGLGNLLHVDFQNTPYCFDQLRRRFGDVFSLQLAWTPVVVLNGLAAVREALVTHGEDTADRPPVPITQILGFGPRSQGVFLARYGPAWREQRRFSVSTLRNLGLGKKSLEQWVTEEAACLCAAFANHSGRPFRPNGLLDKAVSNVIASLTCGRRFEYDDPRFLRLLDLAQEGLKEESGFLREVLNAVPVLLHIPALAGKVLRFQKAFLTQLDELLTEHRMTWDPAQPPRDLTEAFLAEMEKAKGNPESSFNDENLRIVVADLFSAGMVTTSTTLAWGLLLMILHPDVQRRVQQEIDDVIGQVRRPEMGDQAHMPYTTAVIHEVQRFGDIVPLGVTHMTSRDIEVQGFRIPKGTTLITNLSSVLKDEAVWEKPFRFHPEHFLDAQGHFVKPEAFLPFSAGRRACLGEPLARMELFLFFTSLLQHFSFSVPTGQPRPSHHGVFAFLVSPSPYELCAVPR
Experimental: To study the kinetics of CBC metabolism, concentration dependent metabolism of CBC was carried out in the presence of various CYPs using the following procedure. CYP2J2, CYP2C8, CYP2D6, CYP2C9, and CYP3A4 (final concentration 0.5 μM) were initially dissolved in lipid containing POPC:POPS (8:2 v/v) followed by addition of CPR (final concentration 0.6 μM) in 0.1 M potassium phosphate buffer (pH 7.4). CBC (5–80 μM) was added and incubated at 37 °C for 10 min. The reaction was triggered by NADPH and extracted using the exact sample protocol as mentioned in the HLM section.
Samples were analyzed with the 5500 QTRAP LC/MS/MS system (Sciex, Framingham, MA) in the Metabolomics Lab of Roy J. Carver Biotechnology Center, University of Illinois at Urbana–Champaign. Software Analyst 1.7.1 was used for data acquisition and analysis. The 1200 series HPLC system (Agilent Technologies, Santa Clara, CA) includes a degasser, an autosampler, and a binary pump. […] Multiple reaction monitoring (MRM) was used for quantitation: CBC m/z 315.1 → m/z 135.0; 1-acetoxy-6′,7′-dihydroxy-CBC (JM-I-73) m/z 349.1→ m/z 193.0; 1″-hydroxy-CBC (JM-I-66) m/z 331.1→ m/z 275.1; 6′,7′-epoxy-CBC (JM-I-27) m/z 331.1→ m/z 193.0; 7′,10′-ene-6′-hydroxy-CBC (JM-I-30) m/z 331.1→ m/z 193.0; 8′-hydroxy-CBC (JM-I-32) […]→ m/z 77.0. Internal standard EET-EA-d11 was monitored at m/z 375.2→ m/z 357.1.

[2] = molecular target: T1, CYP3A4 with CPR (Homo sapiens, UniProt P08684); experiment: NADPH activity assay, CYP3A4 with CPR; assay type: biochemical; conditions: CYP3A4, CBC 50 μM vs substrate-free
T1 construct: His-tag; made in house; host or cells: E. coli DH-5α with pTGro7 plasmid (CYP)
T1 sequence (P08684 whole entry, one chain of several): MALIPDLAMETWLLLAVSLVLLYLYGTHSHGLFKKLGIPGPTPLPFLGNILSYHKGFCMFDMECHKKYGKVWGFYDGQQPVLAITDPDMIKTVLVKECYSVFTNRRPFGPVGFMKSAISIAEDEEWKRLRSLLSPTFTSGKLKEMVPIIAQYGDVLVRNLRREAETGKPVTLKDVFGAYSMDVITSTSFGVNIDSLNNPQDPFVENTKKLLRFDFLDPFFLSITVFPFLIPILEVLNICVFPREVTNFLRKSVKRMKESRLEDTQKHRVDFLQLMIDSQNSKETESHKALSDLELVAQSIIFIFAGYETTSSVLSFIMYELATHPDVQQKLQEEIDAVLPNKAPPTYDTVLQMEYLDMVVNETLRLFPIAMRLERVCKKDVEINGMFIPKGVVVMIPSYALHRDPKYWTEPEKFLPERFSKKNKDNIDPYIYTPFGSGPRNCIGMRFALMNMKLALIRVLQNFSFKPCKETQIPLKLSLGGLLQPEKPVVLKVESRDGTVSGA
Experimental: (§1) CYP-mediated NADPH oxidation was measured using kinetics mode in a Cary 300 UV–vis spectrometer (Agilent Technologies). 0.2 μM (final concentration) of CYP was taken in 0.1 M potassium phosphate buffer (pH 7.4) and incubated with 0.6 μM (final concentration) of CPR for 5 min with a reaction volume of 400 μL. The reaction was initiated with 200 μM of NADPH, and the absorption change was monitored over 10 min at 340 nm. The rate of NADPH consumption (or NADPH to NADP^+ conversion) was calculated by taking the molar extinction coefficient as 6.22 mM^–1 cm^–1 at 340 nm. To estimate the change in NADPH oxidation in the presence of CBC, both CYP and CPR were further incubated using CBC (final concentration 50 μM) for 5 min followed by measuring the change in absorbance at 340 nm as discussed earlier.

[3] = tested on: TRPV2; set-up: method as in PMID 30697147; conditions: read-out: agonism toward TRPV2; cited from earlier work
[4] = molecular target: T2, CYP2J2 with CPR (Homo sapiens, UniProt P51589); experiment: NADPH activity assay, CYP2J2 with CPR; assay type: biochemical
T2 construct: His-tag; made in house; host or cells: E. coli DH-5α with pTGro7 plasmid (CYP)
T2 sequence (P51589 1-502): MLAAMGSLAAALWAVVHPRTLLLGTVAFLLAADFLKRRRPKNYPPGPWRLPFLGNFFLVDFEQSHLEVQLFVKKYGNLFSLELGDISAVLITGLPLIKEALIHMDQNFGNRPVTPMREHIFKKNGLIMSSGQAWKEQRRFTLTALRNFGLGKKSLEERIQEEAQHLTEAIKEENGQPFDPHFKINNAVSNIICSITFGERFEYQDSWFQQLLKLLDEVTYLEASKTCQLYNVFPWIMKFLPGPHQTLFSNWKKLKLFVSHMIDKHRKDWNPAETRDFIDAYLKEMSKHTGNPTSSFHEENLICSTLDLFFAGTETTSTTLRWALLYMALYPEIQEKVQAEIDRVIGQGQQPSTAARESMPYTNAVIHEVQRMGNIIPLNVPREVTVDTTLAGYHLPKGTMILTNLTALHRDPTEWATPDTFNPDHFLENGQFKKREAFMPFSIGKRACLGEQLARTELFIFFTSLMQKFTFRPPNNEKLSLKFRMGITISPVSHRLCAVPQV
T2 sequence (P16435 1-677 partner): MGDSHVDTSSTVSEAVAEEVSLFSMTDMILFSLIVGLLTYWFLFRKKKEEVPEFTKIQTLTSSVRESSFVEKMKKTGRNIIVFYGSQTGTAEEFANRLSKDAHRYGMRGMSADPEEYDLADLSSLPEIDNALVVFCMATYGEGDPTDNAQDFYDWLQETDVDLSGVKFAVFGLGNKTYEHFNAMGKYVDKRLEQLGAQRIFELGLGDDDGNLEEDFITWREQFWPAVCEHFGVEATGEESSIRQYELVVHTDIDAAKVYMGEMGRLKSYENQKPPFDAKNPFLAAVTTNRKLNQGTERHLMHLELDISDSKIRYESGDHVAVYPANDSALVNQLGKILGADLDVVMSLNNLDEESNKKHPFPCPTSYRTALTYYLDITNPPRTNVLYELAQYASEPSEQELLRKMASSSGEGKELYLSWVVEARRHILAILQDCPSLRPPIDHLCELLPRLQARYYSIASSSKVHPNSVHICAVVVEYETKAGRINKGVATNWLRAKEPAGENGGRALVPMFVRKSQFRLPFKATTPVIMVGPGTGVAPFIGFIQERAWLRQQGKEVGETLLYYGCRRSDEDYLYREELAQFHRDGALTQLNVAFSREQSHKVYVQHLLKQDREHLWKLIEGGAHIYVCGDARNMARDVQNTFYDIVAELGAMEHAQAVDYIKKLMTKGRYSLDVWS
Experimental: as §1

## CCCCCc1cc(O)c2c(c1)OC(C)(CC/C=C(\C)CO)C=C2 (centres unmarked) [8′-hydroxy-CBC]
[1]
  preference for 8′-hydroxy-CBC formation compared to 6′,7′-epoxy-CBC: 3–4 times

## CCCCCc1cc(O)c2c(c1)OC(C)(CCC=C(C)C)C=C2 (centres unmarked) [CBC, Cannabichromene]
[2]
  percentage increase of NADPH consumption in the presence of CBC: ~15%
[3]
  EC50: < 10 µM
[4]; CYP2J2, CBC 50 μM
  NADPH rate (CYP+CPR+CBC): 21.7 nmol/min/nmol and ~20 nmol/min/nmol
[4]; CYP2J2, CBC 50 μM vs substrate-free
  percentage increase of NADPH consumption in the presence of CBC: ~60%
